Results: patent US10485741B2 (WONKWANG UNIVERSITY CENTER FOR INDUSTRY-ACADEMY COOPERATION, priority 2016, dated 2019)
In brackets after ≈: the same amount, converted by molar mass. Where two headings read alike, the source gives them in different places.

Assays:
Assay type in all cases: cell-based, Streptococcus mutans
[1] = system: S. mutans; test: Agar diffusion test of fluoride varnish of hydrogenated rosin mixed with antibacterial substance, inhibition zone; settings: for Inhibition zone, Fluoride varnish + 1 mM substance / Inhibition zone, Fluoride varnish + 10 mM substance: substance mixed 1:1 with fluoride varnish, positive control = ampicillin alone; for antibacterial activities of fluoride varnish mixed with substance compared with a fluoride varnish alone (in words): 1 mM or 10 mM antibacterial substance
Procedure: Antibacterial substance powders were dissolved in DMSO to 100 mM and stored. It was diluted with DMSO to prepare 20 mM and 2 mM antibacterial substances.
Specifically, S. mutans was primarily cultured in a BHI medium in a CO2 incubator at 37°C. for 24 hours. Then, 200 μL of a suspension of S. mutans was inoculated into BHI and secondarily cultured for 6 hours. Then, the OD value was measured with Eppendorf Biophotometer plus. After the measurement, the bacteria were mixed with top agar and then inoculated into the agar medium containing base agar. After top agar hardened, a 6 mm diameter paper disc was placed on the agar medium.
(§1) 5 μL of each of 0.1 mM, 1 mM and 10 mM antibacterial substances was dropped on the paper disc. 10 μL/ml of ampicilin was used as the positive control, and PBS was used as the negative control. After culturing in a CO2 incubator at 37°C for 24 hours, the diameter of the S. mutans inhibition zone formed around the paper disc was measured in two perpendicular locations and the average was calculated to evaluate the antibacterial activities. The average was expressed in mm.
Fluoride varnishes mixed with an antibacterial substance which comprise an antibacterial substance tested in Test Example 1 were prepared according to the method described in Example 2 and the antibacterial activities thereof were tested.

[2] = system: S. mutans (ATCC 25175); test: Agar diffusion test (paper disc), antibacterial substance alone; settings: for diameter of the S. mutans inhibition zone, 0.1 mM antibacterial substance alone: 5 μL of 0.1 mM substance on 6 mm paper disc; for diameter of the S. mutans inhibition zone, 0.1 mM antibacterial substance alone / diameter of the S. mutans inhibition zone, 1 mM antibacterial substance alone / diameter of the S. mutans inhibition zone, 10 mM antibacterial substance alone: 24 h, positive control 10 μL/ml ampicillin; for diameter of the S. mutans inhibition zone, 1 mM antibacterial substance alone: 5 μL of 1 mM substance on 6 mm paper disc; for diameter of the S. mutans inhibition zone, 10 mM antibacterial substance alone: 5 μL of 10 mM substance on 6 mm paper disc; for antibacterial activities against S. mutans (in words): screening from a total 100 substances; for activities against S. mutans (in words): 0.1 mM antibacterial substance
Procedure: as §1, with “Specifically, S. mutans was primarily cultured in a BHI medium in a CO2 incubator at 37°C. for 24 hours. Then, 200 μL of a suspension of S. mutans was inoculated into BHI and secondarily cultured for 6 hours. Then, the OD value was measured with Eppendorf Biophotometer plus. After the measurement, the bacteria were mixed with top agar and then inoculated into the agar medium containing base agar. After top agar hardened, a 6 mm diameter paper disc was placed on the agar medium. 5” for “5”

[3] = system: S. mutans; test: Minimum inhibitory concentration (MIC) and minimal bactericidal concentration (MBC), 96-well BHI broth dilution; settings: for MIC: BHI broth, 24-hour culture, absorbance at 600 nm
Procedure: The minimum inhibitory concentration and minimal bactericidal concentration of antibacterial substances were identified using S. mutans, which is related to dental caries, as the strain. Specifically, in order to measure MIC, a 96-well plate containing 100 μL of BHI broth per well was used. Antibacterial substances were used at a concentration of 16 mM, and the substance No. 1-2 of Example 1 was used at a concentration of 1 mM. The antibacterial materials were transferred to the first well and diluted stepwise. The substance No. 1-2 was diluted to 1 mM to 0.004375 mM and the other antibacterial substances were diluted to 16 mM to 0.007 mM. S. mutans was activated using BHI broth as the medium and cultured in a CO2 incubator at 37° C. for 24 hours. Then, the bacteria were cultured for another 6 hours, and then 100 μL thereof was added to each well of the 96-well plate. After 24-hour culture, the minimum inhibitory concentration was determined by measuring the absorbance at 600 nm with Enzyme-linked immuno-assay reader (Spectra MAX250, Molecular Devices Co.).

[4] = system: S. mutans; test: Formation of Semi-inhibition zone by fluoride varnish mixed with antibacterial substance (agar diffusion); settings: for Semi-inhibition zone, Fluoride varnish + 1 mM substance / Semi-inhibition zone, Fluoride varnish + 10 mM substance: Table 4, substance mixed 1:1 with fluoride varnish, positive control = ampicillin alone
From the text: In addition, the formation of Semi-inhibition zone was investigated according to the same method as in Test Example 1.

[5] = Streptococcus mutans, 24 h, read-out: MIC
[6] = Streptococcus mutans, read-out: MBC
[7] = listed as xanthorrhizol (BioAlpha)
[8] = listed as xanthorrhizol (Santa Cruz)

C=C[C@@](C)(/C=C/c1ccc(O)cc1)CCC=C(C)C [No. 2, Bakuchiol]
Inhibition zone, Fluoride varnish + 1 mM substance ([1]; primary test (Table 2)): 9.55 mm | Inhibition zone, Fluoride varnish + 10 mM substance ([1]; primary test (Table 2)): 9.82 mm | antibacterial activities of fluoride varnish mixed with substance compared with a fluoride varnish alone (in words) ([1]; primary test): significant antibacterial activities | Inhibition zone, Fluoride varnish + 1 mM substance ([1]; secondary test (Table 3)): 8.53 mm | Inhibition zone, Fluoride varnish + 10 mM substance ([1]; secondary test (Table 3)): 10.10 mm | diameter of the S. mutans inhibition zone, 0.1 mM antibacterial substance alone [2]: 6 mm | diameter of the S. mutans inhibition zone, 1 mM antibacterial substance alone [2]: 8.9 mm | diameter of the S. mutans inhibition zone, 10 mM antibacterial substance alone [2]: 14.5 mm | antibacterial activities against S. mutans (in words) [2]: significant antibacterial activities | MBC, rank (in words) [3]: lowest MBC | MIC, rank (in words) [3]: lowest MIC | MIC [3, 5]: 15 µM (≈ 3.85 µg/mL) | MBC [3, 6]: 31 µM (≈ 7.95 µg/mL) | Semi-inhibition zone, Fluoride varnish + 1 mM substance [4]: 22.87 mm | Semi-inhibition zone, Fluoride varnish + 10 mM substance [4]: 26.705 mm

CC(C)=CCc1cc(C(=O)/C=C/c2ccc(O)cc2)c(O)cc1O [No. 3, Bavachalcone]
Inhibition zone, Fluoride varnish + 1 mM substance ([1]; primary test (Table 2)): 11.31 mm | Inhibition zone, Fluoride varnish + 10 mM substance ([1]; primary test (Table 2)): 15.35 mm | antibacterial activities of fluoride varnish mixed with substance compared with a fluoride varnish alone (in words) ([1]; primary test): significant antibacterial activities | increase of antibacterial activities of fluoride varnish mixed with substance ([1]; primary test, compared with a fluoride varnish alone): ≥ 70% | antibacterial activities of fluoride varnish mixed with substance (in words) ([1]; secondary test): remarkable antibacterial activities | Inhibition zone, Fluoride varnish + 1 mM substance ([1]; secondary test (Table 3)): 12.79 mm | Inhibition zone, Fluoride varnish + 10 mM substance ([1]; secondary test (Table 3)): 13.17 mm | activities against S. mutans (in words) [2]: significant activities | activities against S. mutans, rank (in words) ([2]; 1 mM antibacterial substance): highest activities | activities against S. mutans, rank (in words) ([2]; 10 mM antibacterial substance): highest activities | diameter of the S. mutans inhibition zone, 0.1 mM antibacterial substance alone [2]: 9.63 mm | diameter of the S. mutans inhibition zone, 1 mM antibacterial substance alone [2]: 14.51 mm | diameter of the S. mutans inhibition zone, 10 mM antibacterial substance alone [2]: 18.87 mm | antibacterial activities against S. mutans (in words) [2]: significant antibacterial activities | MIC, rank (in words) [3]: lowest MIC | MIC [3, 5]: 15 µM (≈ 4.87 µg/mL) | MBC [3, 6]: 62 µM (≈ 20.1 µg/mL) | formation of Semi-inhibition zone (in words) [4]: largest Semi-inhibition zone | Semi-inhibition zone, Fluoride varnish + 1 mM substance [4]: 34.025 mm | Semi-inhibition zone, Fluoride varnish + 10 mM substance [4]: 20.74 mm

CC1(C)S[C@@H]2[C@H](NC(=O)[C@H](N)c3ccccc3)C(=O)N2[C@H]1C(=O)O [Positive control group, ampicillin, reference compound]
Inhibition zone, Fluoride varnish + 1 mM substance ([1]; primary test (Table 2)): 18.05 mm | Inhibition zone, Fluoride varnish + 10 mM substance ([1]; primary test (Table 2)): 18.72 mm | Inhibition zone, Fluoride varnish + 1 mM substance ([1]; secondary test (Table 3)): 13.55 mm | Inhibition zone, Fluoride varnish + 10 mM substance ([1]; secondary test (Table 3)): 14.84 mm | diameter of the S. mutans inhibition zone, 0.1 mM antibacterial substance alone [2]: 17.24 mm | diameter of the S. mutans inhibition zone, 1 mM antibacterial substance alone [2]: 22.2 mm | diameter of the S. mutans inhibition zone, 10 mM antibacterial substance alone [2]: 22.4 mm | formation of Semi-inhibition zone (in words) [4]: did not form a Semi-inhibition zone | Semi-inhibition zone, Fluoride varnish + 1 mM substance [4]: 13.55 mm | Semi-inhibition zone, Fluoride varnish + 10 mM substance [4]: 14.84 mm

CC(C)=CCC[C@@H](C)c1ccc(C)c(O)c1 [No. 1-2, xanthorrhizol]
Inhibition zone, Fluoride varnish + 1 mM substance ([1]; primary test (Table 2)): 8.58 mm | Inhibition zone, Fluoride varnish + 1 mM substance ([1]; secondary test (Table 3)): 9.65 mm | diameter of the S. mutans inhibition zone, 0.1 mM antibacterial substance alone [2]: 8.26 mm | diameter of the S. mutans inhibition zone, 1 mM antibacterial substance alone [2]: 10.3 mm | MIC, rank (in words) [3]: lowest MIC | MIC [3, 7]: 15 µM (≈ 3.28 µg/mL) | MBC [3, 7]: 62 µM (≈ 13.5 µg/mL) | Semi-inhibition zone, Fluoride varnish + 1 mM substance [4]: 12.265 mm

CC(C)=CCC[C@@H](C)c1ccc(C)c(O)c1 [xanthorrhizol]
antibacterial activities of fluoride varnish mixed with substance compared with a fluoride varnish alone (in words) ([1]; primary test): significant antibacterial activities | activities against S. mutans (in words) [2]: significant activities | antibacterial activities against S. mutans (in words) [2]: significant antibacterial activities

CC1(C)C=Cc2c(ccc(C(=O)/C=C/c3ccc(O)cc3)c2O)O1 [No. 4, Isobavachromene]
Inhibition zone, Fluoride varnish + 1 mM substance ([1]; primary test (Table 2)): 9.94 mm | Inhibition zone, Fluoride varnish + 10 mM substance ([1]; primary test (Table 2)): 10.93 mm | antibacterial activities of fluoride varnish mixed with substance compared with a fluoride varnish alone (in words) ([1]; primary test): significant antibacterial activities | Inhibition zone, Fluoride varnish + 1 mM substance ([1]; secondary test (Table 3)): 9.17 mm | Inhibition zone, Fluoride varnish + 10 mM substance ([1]; secondary test (Table 3)): 9.96 mm | diameter of the S. mutans inhibition zone, 0.1 mM antibacterial substance alone [2]: 6 mm | diameter of the S. mutans inhibition zone, 1 mM antibacterial substance alone [2]: 8.71 mm | diameter of the S. mutans inhibition zone, 10 mM antibacterial substance alone [2]: 9.91 mm | antibacterial activities against S. mutans (in words) [2]: significant antibacterial activities | MIC, rank (in words) [3]: lowest MIC | MIC [3, 5]: 15 µM (≈ 4.84 µg/mL) | MBC [3, 6]: 125 µM (≈ 40.3 µg/mL) | Semi-inhibition zone, Fluoride varnish + 1 mM substance [4]: 20.795 mm | Semi-inhibition zone, Fluoride varnish + 10 mM substance [4]: 24.81 mm

CC(C)=CCC[C@@H](C)c1ccc(C)c(O)c1 [No. 1-1, xanthorrhizol]
Inhibition zone, Fluoride varnish + 1 mM substance ([1]; primary test (Table 2)): 9.14 mm | Inhibition zone, Fluoride varnish + 10 mM substance ([1]; primary test (Table 2)): 10.62 mm | Inhibition zone, Fluoride varnish + 1 mM substance ([1]; secondary test (Table 3)): 8.64 mm | Inhibition zone, Fluoride varnish + 10 mM substance ([1]; secondary test (Table 3)): 10.28 mm | diameter of the S. mutans inhibition zone, 0.1 mM antibacterial substance alone [2]: 6 mm | diameter of the S. mutans inhibition zone, 1 mM antibacterial substance alone [2]: 6 mm | diameter of the S. mutans inhibition zone, 10 mM antibacterial substance alone [2]: 7.75 mm | MIC [3, 8]: 62 µM (≈ 13.5 µg/mL) | MBC [3, 8]: 125 µM (≈ 27.3 µg/mL) | Semi-inhibition zone, Fluoride varnish + 1 mM substance [4]: 25.515 mm | Semi-inhibition zone, Fluoride varnish + 10 mM substance [4]: 25.725 mm
